Test results as given in ChEMBL document CHEMBL5143690, “Identification of nitrofuranylchalcone tethered benzoxazole-2-amines as potent inhibitors of drug resistant Mycobacterium tuberculosis demonstrating bactericidal efficacy” (Bioorg Med Chem, 2022).
Converted amounts (≈) assume the structure as drawn.

Assays:
Assay type in all cases: functional
[1] = system: Mycobacterium tuberculosis; test: Antimycobacterial activity against Mycobacterium tuberculosis H37Rv ATCC 27294 assessed as inhibition of bacterial growth measured after 7 days by resazurin microtitre assay; conditions: H37Rv ATCC 27294, 168 h, time 7 day
Escherichia coli = test: Antibacterial activity against Escherichia coli ATCC 25922 assessed as reduction in bacterial growth incubated for 16 to 18 hrs by microtiter plate assay; conditions: time 16-18 hrs
Staphylococcus aureus = test: Antibacterial activity against Staphylococcus aureus ATCC 29213 assessed as reduction in bacterial growth incubated for 16 to 18 hrs by microtiter plate assay; conditions: time 16-18 hrs
Klebsiella pneumoniae = test: Antibacterial activity against Klebsiella pneumoniae BAA 1705 assessed as reduction in bacterial growth incubated for 16 to 18 hrs by microtiter plate assay; conditions: time 16-18 hrs
Acinetobacter baumannii = test: Antibacterial activity against Acinetobacter baumannii BAA 1605 assessed as reduction in bacterial growth incubated for 16 to 18 hrs by microtiter plate assay; conditions: time 16-18 hrs
Pseudomonas aeruginosa = test: Antibacterial activity against Pseudomonas aeruginosa ATCC 27853 assessed as reduction in bacterial growth incubated for 16 to 18 hrs by microtiter plate assay; conditions: time 16-18 hrs
[2] = system: Mycobacteroides abscessus; test: Antimycobacterial activity against Mycobacterium abscessus ATCC 19977 assessed as inhibition of bacterial growth after 48 hrs by resazurin microtitre assay
[3] = system: Mycolicibacterium fortuitum; test: Antimycobacterial activity against Mycobacterium fortuitum ATCC 6841 assessed as inhibition of bacterial growth after 48 hrs by resazurin microtitre assay
Mycobacteroides chelonae = test: Antimycobacterial activity against Mycobacterium chelonae ATCC 6841 assessed as inhibition of bacterial growth after 48 hrs by resazurin microtitre assay

Row | SMILES | MIC [1] [µg/mL] | MIC (Escherichia coli) [µg/mL] | MIC (Staphylococcus aureus) [µg/mL] | MIC (Klebsiella pneumoniae) [µg/mL] | MIC (Acinetobacter baumannii) [µg/mL] | MIC (Pseudomonas aeruginosa) [µg/mL] | MIC [2] [µg/mL] | MIC [3] [µg/mL] | MIC (Mycobacteroides chelonae) [µg/mL]
1 | COc1cc(C2CC(c3ccccc3)=NN2C(C)=O)cc2nc(N)oc12 (stereo unspecified) | 0.625 (≈ 1.78 µM) |  |  |  |  |  |  |  | 
2 | O=C(/C=C/c1ccccn1)c1ccc(Nc2nc3ccccc3o2)cc1 | 4 (≈ 11.7 µM) | > 64 | > 64 | > 64 | > 64 | > 64 | > 64 | > 64 | > 64
3 | COc1ccc(OC)c(/C=C/C(=O)c2ccc(Nc3nc4ccccc4o3)cc2)c1 | > 64 | > 64 | > 64 | > 64 | > 64 | > 64 | > 64 | > 64 | > 64
4 | COc1ccc(C(=O)/C=C/c2cc(OC)c(OC)c(OC)c2)cc1Nc1nc2ccccc2o1 | 64 (≈ 139 µM) | > 64 | > 64 | > 64 | > 64 | > 64 | > 64 | > 64 | > 64
5 | COc1cc(/C=C/C(=O)c2ccc(Nc3nc4ccccc4o3)cc2)cc(OC)c1OC | 8 (≈ 18.6 µM) | > 64 | > 64 | > 64 | > 64 | > 64 | > 64 | > 64 | > 64
6 | O=C(/C=C/c1cccc(Cl)c1)c1ccc(Nc2nc3ccccc3o2)cc1 | > 64 | > 64 | > 64 | > 64 | > 64 | > 64 | > 64 | > 64 | > 64
7 | O=C(/C=C/c1ccc([N+](=O)[O-])cc1)c1ccc(Nc2nc3ccccc3o2)cc1 | 32 (≈ 83 µM) | > 64 | > 64 | > 64 | > 64 | > 64 | > 64 | > 64 | > 64
8 | COc1ccc(/C=C/C(=O)c2ccc(Nc3nc4ccccc4o3)cc2)c(OC)c1OC | 16 (≈ 37.2 µM) | > 64 | > 64 | > 64 | > 64 | > 64 | > 64 | > 64 | > 64
9 | CN(C)c1ccc(/C=C/C(=O)c2ccc(Nc3nc4ccccc4o3)cc2)cc1 | 64 (≈ 167 µM) | > 64 | > 64 | > 64 | > 64 | > 64 | > 64 | > 64 | > 64
10 | O=C(/C=C/c1ccc(Cl)cc1)c1ccc(Nc2nc3ccccc3o2)cc1 | 64 (≈ 171 µM) | > 64 | > 64 | > 64 | > 64 | > 64 | > 64 | > 64 | > 64
11 | O=C(/C=C/c1cccc([N+](=O)[O-])c1)c1ccc(Nc2nc3ccccc3o2)cc1 | > 64 | > 64 | > 64 | > 64 | > 64 | > 64 | > 64 | > 64 | > 64
12 | COc1cc(OC)c(OC)cc1/C=C/C(=O)c1ccc(Nc2nc3ccccc3o2)cc1 | 16 (≈ 37.2 µM) | > 64 | > 64 | > 64 | > 64 | > 64 | > 64 | > 64 | > 64
13 | COc1cc(/C=C/C(=O)c2ccc(Nc3nc4cc(C(C)(C)C)ccc4o3)cc2)cc(OC)c1OC | 32 (≈ 65.8 µM) | > 64 | > 64 | > 64 | > 64 | > 64 | > 64 | > 64 | > 64
14 | O=C(/C=C/c1ccc(Cl)cc1Cl)c1ccc(Nc2nc3ccccc3o2)cc1 | > 64 | > 64 | > 64 | > 64 | > 64 | > 64 | > 64 | > 64 | > 64
15 | CC[C@@H](CO)NCCN[C@@H](CC)CO [ETHAMBUTOL] | 2 (≈ 9.79 µM) |  |  |  |  |  |  |  | 
16 | COc1cc(/C=C/C(=O)c2ccc(Nc3nc4cc(Cl)ccc4o3)cc2)cc(OC)c1OC | 8 (≈ 17.2 µM) | > 64 | > 64 | > 64 | > 64 | > 64 | > 64 | > 64 | > 64
17 | COc1cc(/C=C/C(=O)c2cccc(Nc3nc4ccccc4o3)c2)cc(OC)c1OC | 8 (≈ 18.6 µM) | > 64 | > 64 | > 64 | > 64 | > 64 | > 64 | > 64 | > 64
18 | COc1ccc(/C=C/C(=O)c2ccc(Nc3nc4ccccc4o3)cc2)c(OC)c1 | > 64 | > 64 | > 64 | > 64 | > 64 | > 64 | > 64 | > 64 | > 64
